From US20260242419A1, “A CYCLIC PEPTIDE FOR TRAPPING INTERLEUKIN-1 BETA” (Merck Sharp & Dohme LLC, priority 2023, published 2026) come the findings set out here.

Non-standard residues stand in square brackets, D forms with d. Residues, ends and D or L forms follow the SMILES beside them. dPro(4R-(4-pyridylmethyl)) = O=C(O)[C@H]1C[C@@H](Cc2ccncc2)CN1; Trp(βS-Me,4-F) = C[C@@H](c1c[nH]c2cccc(F)c12)[C@H](N)C(=O)O; Bip(4'-CONH2) = NC(=O)c1ccc(-c2ccc(C[C@H](N)C(=O)O)cc2)cc1; Ala(1-bicyclo(1.1.1)pentyl) = N[C@@H](CC12CC(C1)C2)C(=O)O; dPro(3S-(4-F-Bn)) = O=C(O)[C@@H]1NCC[C@@H]1Cc1ccc(F)cc1; Ala(pyrimidin-5-yl) = N[C@@H](Cc1cncnc1)C(=O)O; Phe(4-CONH2) = NC(=O)c1ccc(C[C@H](N)C(=O)O)cc1; Phe(4-COOH) = N[C@@H](Cc1ccc(C(=O)O)cc1)C(=O)O; Pro(cis-4-F) = O=C(O)[C@@H]1C[C@H](F)CN1; Ala(4-THP) = N[C@@H](CC1CCOCC1)C(=O)O; AEF = NCCOc1ccc(C[C@H](N)C(=O)O)cc1; d(αMeD) = C[C@@](N)(CC(=O)O)C(=O)O; 4Pal = N[C@@H](Cc1ccncc1)C(=O)O; aThr = C[C@H](O)[C@H](N)C(=O)O; d(αMeS) = C[C@@](N)(CO)C(=O)O; NMeDab = CN[C@@H](CCN)C(=O)O; Dab = NCC[C@H](N)C(=O)O; Aib = CC(C)(N)C(=O)O

Usually IC50 stands for the point on the concentration scale where inhibition reaches its midpoint.

T1 sequence (P01584 117-269): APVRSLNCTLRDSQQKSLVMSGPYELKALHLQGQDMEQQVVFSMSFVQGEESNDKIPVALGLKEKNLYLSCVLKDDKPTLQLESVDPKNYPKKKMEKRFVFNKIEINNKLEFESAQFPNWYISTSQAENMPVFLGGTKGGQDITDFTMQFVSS

The test addresses T1, IL-1β (Homo sapiens, UniProt P01584).
T1 construct: purchased BioLegend 579404
The test is described as follows: IL-6 assay in MRC5 cells: inhibition of IL-1β induced IL-6 secretion (AlphaLISA). Type of test: cell-based. The following applies: inhibition of IL-1β induced IL-6 secretion in MRC5 cells; read-out: MRC5 IC50. The method, boiled down:
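Compound was pre-incubated 1 h at ambient temperature with recombinant human IL-1β at 2λ EC80 before adding human lung fibroblast MRC5 cells (3000/well) in EMEM with 0.025% BSA. After overnight culture at 37 °C, 5% CO2, secreted IL-6 in conditioned medium was measured by AlphaLISA; IC50 from 4-parameter logistic fits.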
Background: Bead proximity is the source of the signal in Alpha formats.
On to `CC(=O)NCCOc1ccc(C[C@@H]2NC(=O)[C@H]3[C@@H](Cc4ccc(F)cc4)CCN3C(=O)CNC(=O)[C@H](CCN)NC(=O)[C@H](CCC(N)=O)NC(=O)[C@H](CC3CCOCC3)NC(=O)[C@@](C)(CO)NC(=O)[C@H](Cc3c[nH]c4ccccc34)NC(=O)[C@H](CO)NC(=O)C(C)(C)NC(=O)[C@H]([C@@H](C)c3c[nH]c4cccc(F)c34)NC(=O)[C@@H]3C[C@H](F)CN3C(=O)CNC(=O)[C@H](Cc3ccc(C(=O)O)cc3)NC(=O)[C@H](CC34CC(C3)C4)NC2=O)cc1` [Example 371] (cyclo([AEF](Ac)[Ala(1-bicyclo(1.1.1)pentyl)][Phe(4-COOH)]G[Pro(cis-4-F)][Trp(βS-Me,4-F)][Aib]SW[d(αMeS)][Ala(4-THP)]Q[Dab]G[dPro(3S-(4-F-Bn))])), for which the IC50 came out at 0.014 nM.

For the compound `CC(=O)NCCOc1ccc(C[C@@H]2NC(=O)[C@H]3[C@@H](Cc4ccc(F)cc4)CCN3C(=O)CNC(=O)[C@H](CCN)NC(=O)[C@H](CCC(N)=O)NC(=O)[C@H](CC3CCOCC3)NC(=O)[C@@](C)(CC(=O)O)NC(=O)[C@H](Cc3c[nH]c4ccccc34)NC(=O)[C@H](CO)NC(=O)C(C)(C)NC(=O)[C@H]([C@@H](C)c3c[nH]c4cccc(F)c34)NC(=O)[C@@H]3C[C@H](F)CN3C(=O)CNC(=O)[C@H](Cc3ccc(C(=O)O)cc3)NC(=O)[C@H](Cc3ccncc3)NC2=O)cc1` [Example 372] (cyclo([AEF](Ac)[4Pal][Phe(4-COOH)]G[Pro(cis-4-F)][Trp(βS-Me,4-F)][Aib]SW[d(αMeD)][Ala(4-THP)]Q[Dab]G[dPro(3S-(4-F-Bn))])), the IC50 turned out to be 0.009 nM.

`CC(=O)NCCOc1ccc(C[C@@H]2NC(=O)[C@H]3[C@@H](Cc4ccc(F)cc4)CCN3C(=O)CNC(=O)[C@H](CCN)NC(=O)[C@H](CCC(N)=O)NC(=O)[C@H](CC3CCOCC3)NC(=O)[C@@](C)(CC(=O)O)NC(=O)[C@H](Cc3c[nH]c4ccccc34)NC(=O)[C@H](CO)NC(=O)C(C)(C)NC(=O)[C@H]([C@@H](C)c3c[nH]c4cccc(F)c34)NC(=O)[C@@H]3C[C@H](F)CN3C(=O)CNC(=O)[C@H](Cc3ccc(C(N)=O)cc3)NC(=O)[C@H](CC34CC(C3)C4)NC2=O)cc1` [Example 373] (cyclo([AEF](Ac)[Ala(1-bicyclo(1.1.1)pentyl)][Phe(4-CONH2)]G[Pro(cis-4-F)][Trp(βS-Me,4-F)][Aib]SW[d(αMeD)][Ala(4-THP)]Q[Dab]G[dPro(3S-(4-F-Bn))])): the IC50 was determined as 0.012 nM.

With `CC(=O)NCCOc1ccc(C[C@@H]2NC(=O)[C@H]3C[C@@H](Cc4ccncc4)CN3C(=O)CNC(=O)[C@H](CCN)NC(=O)[C@H](CCC(N)=O)NC(=O)[C@H](CC3CCOCC3)NC(=O)[C@@](C)(CC(=O)O)NC(=O)[C@H](Cc3c[nH]c4ccccc34)NC(=O)[C@H](CO)NC(=O)C(C)(C)NC(=O)[C@H]([C@@H](C)c3c[nH]c4cccc(F)c34)NC(=O)[C@@H]3C[C@H](F)CN3C(=O)CNC(=O)[C@H](Cc3ccc(C(=O)O)cc3)NC(=O)[C@H](CC34CC(C3)C4)NC2=O)cc1` [Example 374] (cyclo([AEF](Ac)[Ala(1-bicyclo(1.1.1)pentyl)][Phe(4-COOH)]G[Pro(cis-4-F)][Trp(βS-Me,4-F)][Aib]SW[d(αMeD)][Ala(4-THP)]Q[Dab]G[dPro(4R-(4-pyridylmethyl))])), the IC50 was 0.017 nM.

With `CC(=O)NCCOc1ccc(C[C@@H]2NC(=O)[C@H]3C[C@@H](Cc4ccncc4)CN3C(=O)CNC(=O)[C@H](CCN)NC(=O)[C@H](CCC(N)=O)NC(=O)[C@H](CC3CCOCC3)NC(=O)[C@@](C)(CO)NC(=O)[C@H](Cc3c[nH]c4ccccc34)NC(=O)[C@H](CO)NC(=O)C(C)(C)NC(=O)[C@H]([C@@H](C)c3c[nH]c4cccc(F)c34)NC(=O)[C@@H]3C[C@H](F)CN3C(=O)CNC(=O)[C@H](Cc3ccc(C(=O)O)cc3)NC(=O)[C@H](CC34CC(C3)C4)NC2=O)cc1` [Example 375] (cyclo([AEF](Ac)[Ala(1-bicyclo(1.1.1)pentyl)][Phe(4-COOH)]G[Pro(cis-4-F)][Trp(βS-Me,4-F)][Aib]SW[d(αMeS)][Ala(4-THP)]Q[Dab]G[dPro(4R-(4-pyridylmethyl))])), the IC50 was determined as 0.025 nM.

As for `CC(=O)NCCOc1ccc(C[C@@H]2NC(=O)[C@H]3C[C@@H](Cc4ccncc4)CN3C(=O)CNC(=O)[C@H](CCN)NC(=O)[C@H](CCC(N)=O)NC(=O)[C@H](CC3CCOCC3)NC(=O)[C@@](C)(CC(=O)O)NC(=O)[C@H](Cc3c[nH]c4ccccc34)NC(=O)[C@H](CO)NC(=O)C(C)(C)NC(=O)[C@H]([C@@H](C)c3c[nH]c4cccc(F)c34)NC(=O)[C@@H]3C[C@H](F)CN3C(=O)CNC(=O)[C@H](Cc3ccc(C(N)=O)cc3)NC(=O)[C@H](CC34CC(C3)C4)NC2=O)cc1` [Example 376] (cyclo([AEF](Ac)[Ala(1-bicyclo(1.1.1)pentyl)][Phe(4-CONH2)]G[Pro(cis-4-F)][Trp(βS-Me,4-F)][Aib]SW[d(αMeD)][Ala(4-THP)]Q[Dab]G[dPro(4R-(4-pyridylmethyl))])), the IC50 was determined as 0.048 nM.

On to `CC(=O)NCCOc1ccc(C[C@@H]2NC(=O)[C@H]3C[C@@H](Cc4ccncc4)CN3C(=O)CNC(=O)[C@H](CCN)NC(=O)[C@H](CCC(N)=O)NC(=O)[C@H](CC3CCOCC3)NC(=O)[C@@](C)(CC(=O)O)NC(=O)[C@H](Cc3c[nH]c4ccccc34)NC(=O)[C@H](CO)NC(=O)C(C)(C)NC(=O)[C@H]([C@@H](C)c3c[nH]c4cccc(F)c34)NC(=O)[C@@H]3C[C@H](F)CN3C(=O)CNC(=O)[C@H](Cc3ccc(C(N)=O)cc3)NC(=O)[C@H](Cc3ccncc3)NC2=O)cc1` [Example 377] (cyclo([AEF](Ac)[4Pal][Phe(4-CONH2)]G[Pro(cis-4-F)][Trp(βS-Me,4-F)][Aib]SW[d(αMeD)][Ala(4-THP)]Q[Dab]G[dPro(4R-(4-pyridylmethyl))])), for which the IC50 was found to be 0.04 nM.

`CC(=O)NCCOc1ccc(C[C@@H]2NC(=O)[C@H]3C[C@@H](Cc4ccncc4)CN3C(=O)CNC(=O)[C@H](CCN)NC(=O)[C@H](CCC(N)=O)NC(=O)[C@H](CC3CCOCC3)NC(=O)[C@@](C)(CO)NC(=O)[C@H](Cc3c[nH]c4ccccc34)NC(=O)[C@H](CO)NC(=O)C(C)(C)NC(=O)[C@H]([C@@H](C)c3c[nH]c4cccc(F)c34)NC(=O)[C@@H]3C[C@H](F)CN3C(=O)CNC(=O)[C@H](Cc3ccc(C(N)=O)cc3)NC(=O)[C@H](Cc3ccncc3)NC2=O)cc1` [Example 378] (cyclo([AEF](Ac)[4Pal][Phe(4-CONH2)]G[Pro(cis-4-F)][Trp(βS-Me,4-F)][Aib]SW[d(αMeS)][Ala(4-THP)]Q[Dab]G[dPro(4R-(4-pyridylmethyl))])): the IC50 came out at 0.043 nM.

Take `C[C@@H](c1c[nH]c2cccc(F)c12)[C@@H]1NC(=O)[C@@H]2C[C@H](F)CN2C(=O)CNC(=O)[C@H](Cc2ccc(C(=O)O)cc2)NC(=O)[C@H](Cc2ccncc2)NC(=O)[C@H](Cc2ccc(-c3ccc(C(N)=O)cc3)cc2)NC(=O)[C@H]2[C@@H](Cc3ccc(F)cc3)CCN2C(=O)CNC(=O)[C@H](CCN)NC(=O)[C@H](CCC(N)=O)NC(=O)[C@H](Cc2cncnc2)NC(=O)[C@@](C)(CC(=O)O)NC(=O)[C@H](Cc2c[nH]c3ccccc23)NC(=O)[C@H](CO)NC(=O)C(C)(C)NC1=O` [Example 379] (cyclo([Bip(4'-CONH2)][4Pal][Phe(4-COOH)]G[Pro(cis-4-F)][Trp(βS-Me,4-F)][Aib]SW[d(αMeD)][Ala(pyrimidin-5-yl)]Q[Dab]G[dPro(3S-(4-F-Bn))])): the concentration for half-maximal inhibition (IC50) came to 0.016 nM.

Regarding `C[C@@H](c1c[nH]c2cccc(F)c12)[C@@H]1NC(=O)[C@@H]2C[C@H](F)CN2C(=O)CNC(=O)[C@H](Cc2ccc(C(N)=O)cc2)NC(=O)[C@H](Cc2ccncc2)NC(=O)[C@H](Cc2ccc(-c3ccc(C(N)=O)cc3)cc2)NC(=O)[C@H]2[C@@H](Cc3ccc(F)cc3)CCN2C(=O)CNC(=O)[C@H](CCN)NC(=O)[C@H](CCC(N)=O)NC(=O)[C@H](Cc2cncnc2)NC(=O)[C@@](C)(CC(=O)O)NC(=O)[C@H](Cc2c[nH]c3ccccc23)NC(=O)[C@H](CO)NC(=O)C(C)(C)NC1=O` [Example 380] (cyclo([Bip(4'-CONH2)][4Pal][Phe(4-CONH2)]G[Pro(cis-4-F)][Trp(βS-Me,4-F)][Aib]SW[d(αMeD)][Ala(pyrimidin-5-yl)]Q[Dab]G[dPro(3S-(4-F-Bn))])), the IC50 was 0.018 nM.

For `CCO[C@@H](C)[C@@H]1NC(=O)C(C)(C)NC(=O)[C@H](Cc2c[nH]c3ccccc23)NC(=O)[C@H](CO)NC(=O)C(C)(C)NC(=O)[C@H]([C@@H](C)c2c[nH]c3cccc(F)c23)NC(=O)[C@@H]2C[C@H](F)CN2C(=O)CNC(=O)[C@H](Cc2ccc(C(N)=O)cc2)NC(=O)[C@H](Cc2ccncc2)NC(=O)[C@H](Cc2ccc(OCCNC(C)=O)cc2)NC(=O)[C@H]2C[C@@H](Cc3ccncc3)CN2C(=O)CNC(=O)[C@H](CCN)N(C)C(=O)[C@H](CCC(N)=O)NC1=O` [Example 381] (cyclo([4Pal][Phe(4-CONH2)]G[Pro(cis-4-F)][Trp(βS-Me,4-F)][Aib]SW[Aib][aThr](Et)Q[NMeDab]G[dPro(4R-(4-pyridylmethyl))][AEF](Ac))), the IC50 came out at 0.041 nM.

For the compound `CCO[C@H](C)[C@@H]1NC(=O)C(C)(C)NC(=O)[C@H](Cc2c[nH]c3ccccc23)NC(=O)[C@H](CO)NC(=O)C(C)(C)NC(=O)[C@H]([C@@H](C)c2c[nH]c3cccc(F)c23)NC(=O)[C@@H]2C[C@H](F)CN2C(=O)CNC(=O)[C@H](Cc2ccc(C(N)=O)cc2)NC(=O)[C@H](Cc2ccncc2)NC(=O)[C@H](Cc2ccc(OCCNC(C)=O)cc2)NC(=O)[C@H]2C[C@@H](Cc3ccncc3)CN2C(=O)CNC(=O)[C@H](CCN)N(C)C(=O)[C@H](CCC(N)=O)NC1=O` [Example 382] (cyclo([AEF](Ac)[4Pal][Phe(4-CONH2)]G[Pro(cis-4-F)][Trp(βS-Me,4-F)][Aib]SW[Aib]T(Et)Q[NMeDab]G[dPro(4R-(4-pyridylmethyl))])), the 50% inhibitory concentration (IC50) worked out at 0.048 nM.
